Patent EP0984975B1, “MULTICYCLIC ERYTHROMYCIN DERIVATIVES” (Abbott Laboratories, priority 1997, dated 1998)

Key:
Assay in all cases: In vitro assay of antibacterial activity (agar dilution MIC)
Type in all cases: cell-based
[1] = test system: STREPTOCOCCUS PYOGENES 930; conditions: BHI agar, 35-37 °C for 20 to 24 hours, unit assumed
Protocol: (§1) Representative compounds of the present invention were assayed in vitro for antibacterial activity as follows: Twelve petri dishes containing successive aqueous dilutions of the test compound mixed with 10 mL of sterilized Brain Heart Infusion (BHI) agar (Difco 0418-01-5) were prepared. Each plate was inoculated with 1:100 (or 1:10 for slow-growing strains, such as Micrococcus and Streptococcus) dilutions of up to 32 different microorganisms, using a Steers replicator block. The inoculated plates were incubated at 35-37 °C for 20 to 24 hours. In addition, a control plate, using BHI agar containing no test compound, was prepared and incubated at the beginning and end of each test.
(§2) An additional plate containing a compound having known susceptibility patterns for the organisms being tested and belonging to the same antibiotic class as the test compound was also prepared and incubated as a further control, as well as to provide test-to-test comparability. Erythromycin A was used for this purpose.
(§3) After incubation, each plate was visually inspected. The minimum inhibitory concentration (MIC) was defined as the lowest concentration of drug yielding no growth, a slight haze, or sparsely isolated colonies on the inoculum spot as compared to the growth control.

ESCHERICHIA COLI SS = conditions: unit assumed
Protocol: as §1, §2, §3

[2] = test system: STREPTOCOCCUS PYOGENES EES61; conditions: BHI agar, 35-37 °C for 20 to 24 hours, unit assumed
Protocol: as §1, §2, §3

[3] = test system: STAPHYLOCOCCUS EPIDERMIDIS 3519; conditions: unit assumed
Protocol: as §1, §2, §3

[4] = test system: STAPHYLOCOCCUS AUREUS CMX 642A; conditions: BHI agar, 35-37 °C for 20 to 24 hours, unit assumed
Protocol: as §1, §2, §3

[5] = test system: STREPTOCOCCUS PYOGENES PIU 2548; conditions: BHI agar, 35-37 °C for 20 to 24 hours, unit assumed
Protocol: as §1, §2, §3

ESCHERICHIA COLI DC-2 = conditions: BHI agar, 35-37 °C for 20 to 24 hours, unit assumed
Protocol: as §1, §2, §3

[6] = test system: STAPHYLOCOCCUS AUREUS 1775; conditions: BHI agar, 35-37 °C for 20 to 24 hours, unit assumed
Protocol: as §1, §2, §3

[7] = test system: STAPHYLOCOCCUS AUREUS CMX 553; conditions: BHI agar, 35-37 °C for 20 to 24 hours, unit assumed
Protocol: as §1, §2, §3

M[…] ATCC 4698 = conditions: BHI agar, 35-37 °C for 20 to 24 hours, unit assumed
Protocol: as §1, §2, §3

EN[…] ATCC 8043 = conditions: BHI agar, 35-37 °C for 20 to 24 hours, unit assumed
Protocol: as §1, §2, §3

STR[…] 508 = conditions: BHI agar, 35-37 °C for 20 to 24 hours, unit assumed
Protocol: as §1, §2, §3

[8] = test system: STAPHYLOCOCCUS AUREUS ATCC 6538P; conditions: BHI agar, 35-37 °C for 20 to 24 hours, unit assumed
Protocol: as §1, §2, §3

ESCHERICHIA COLI JUHL = conditions: unit assumed
Protocol: as §1, §2, §3

M[…] ATCC 9341 = conditions: BHI agar, 35-37 °C for 20 to 24 hours, unit assumed
Protocol: as §1, §2, §3

[9] = test system: STAPHYLOCOCCUS AUREUS NCTC10649M; conditions: BHI agar, 35-37 °C for 20 to 24 hours, unit assumed
Protocol: as §1, §2, §3

N. ASTEROIDES ATCC 9970 = conditions: BHI agar, 35-37 °C for 20 to 24 hours, unit assumed
Protocol: as §1, §2, §3

[10] = test system: MYCOBACTERIUM SMEGMATIS ATCC 114; conditions: BHI agar, 35-37 °C for 20 to 24 hours, unit assumed
Protocol: as §1, §2, §3

[11] = test system: STAPHYLOCOCCUS AUREUS A-5278; conditions: BHI agar, 35-37 °C for 20 to 24 hours, unit assumed
Protocol: as §1, §2, §3

[12] = test system: STREPTOCOCCUS BOVIS A-5169; conditions: BHI agar, 35-37 °C for 20 to 24 hours, unit assumed
Protocol: as §1, §2, §3

CANDIDA ALBICANS CCH 442 = conditions: BHI agar, 35-37 °C for 20 to 24 hours, unit assumed
Protocol: as §1, §2, §3

[13] = test system: STAPHYLOCOCCUS AUREUS A5177; conditions: BHI agar, 35-37 °C for 20 to 24 hours, unit assumed
Protocol: as §1, §2, §3

[14] = ESCHERICHIA COLI SS, BHI agar, 35-37 °C for 20 to 24 hours
[15] = STAPHYLOCOCCUS EPIDERMIDIS 3519, BHI agar, 35-37 °C for 20 to 24 hours
[16] = STREPTOCOCCUS PYOGENES PIU 2548
[17] = STREPTOCOCCUS AGALACTIAE CMX 508
[18] = ESCHERICHIA COLI JUHL, BHI agar, 35-37 °C for 20 to 24 hours
[19] = MYCOBACTERIUM SMEGMATIS ATCC 114

Structure (SMILES) | Antibacterial Activity (MIC's) ([1]; STREPTOCOCCUS PYOGENES 930) [µg/mL] | Antibacterial Activity (MIC's) (ESCHERICHIA COLI SS; [14]) [µg/mL] | Antibacterial Activity (MIC's) ([2]; STREPTOCOCCUS PYOGENES EES61) [µg/mL] | Antibacterial Activity (MIC's) [4] [µg/mL] | Antibacterial Activity (MIC's) [5, 16] [µg/mL] | Antibacterial Activity (MIC's) (ESCHERICHIA COLI DC-2) [µg/mL] | Antibacterial Activity (MIC's) [6] [µg/mL] | Antibacterial Activity (MIC's) [7] [µg/mL] | Antibacterial Activity (MIC's) (M[…] ATCC 4698; MICROCOCCUS LUTEUS ATCC 4698) [µg/mL] | Antibacterial Activity (MIC's) (STR[…] 508; [17]) [µg/mL] | Antibacterial Activity (MIC's) [8] [µg/mL] | Antibacterial Activity (MIC's) (ESCHERICHIA COLI JUHL; [18]) [µg/mL] | Antibacterial Activity (MIC's) (M[…] ATCC 9341; MICROCOCCUS LUTEUS ATCC 9341) [µg/mL] | Antibacterial Activity (MIC's) [9] [µg/mL] | Antibacterial Activity (MIC's) (N. ASTEROIDES ATCC 9970) [µg/mL] | Antibacterial Activity (MIC's) [10, 19] [µg/mL] | Antibacterial Activity (MIC's) [11] [µg/mL] | Antibacterial Activity (MIC's) ([12]; STREPTOCOCCUS BOVIS A-5169) [µg/mL] | Antibacterial Activity (MIC's) (CANDIDA ALBICANS CCH 442) [µg/mL] | Antibacterial Activity (MIC's) [13] [µg/mL] | further results
CC[C@H]1OC(=O)[C@H](C)C(=O)[C@H](C)[C@@H](O[C@@H]2O[C@H](C)C[C@H](N(C)C)[C@H]2O)[C@](C)(OC)C[C@@H](C)C2=Nc3ccccc3N3C(=O)O[C@@]1(C)[C@H]3[C@H]2C [Ex 2, Compound of Formula (I): R^1 is methoxy: R^2 is H, R^3 is absent, the double bond is present, A, B, D and E are H, and Y and Z taken together with the atom to which they are attached form an oxo group] | > 100 | 1.56 | 0.1 | 0.39 | 0.39 | > 100 | > 100 | 0.39 | 0.78 | 0.1 | 0.39 | > 100 | 0.1 | 0.39 | 0.39 | 3.1 | > 100 | 0.1 | > 100 | 0.39 | Antibacterial Activity (MIC's) [3, 15]: 0.39 µg/mL; Antibacterial Activity (MIC's) (EN[…] ATCC 8043; ENTEROCOCCUS FAECIUM ATCC 8043): 0.2 µg/mL
CC[C@H]1OC(=O)[C@H](C)[C@@H](O[C@H]2C[C@@](C)(OC)[C@@H](O)[C@H](C)O2)[C@H](C)[C@@H](O[C@@H]2O[C@H](C)C[C@H](N(C)C)[C@H]2O)[C@](C)(O)C[C@@H](C)C(=O)[C@H](C)[C@@H](O)[C@]1(C)O [Ery A, Erythromycin A, reference compound] | – | – | – | 0.39 | – | 100 | > 100 | 0.39 | – | – | 0.2 | – | – | 0.39 | 0.1 | – | > 100 | – | > 100 | 3.1 | Antibacterial Activity (MIC's) ([1]; STR[…] 930): > 100 µg/mL; Antibacterial Activity (MIC's) (ESCHERICHIA COLI SS): 0.39 µg/mL; Antibacterial Activity (MIC's) ([2]; STR[…] EES61): 0.02 µg/mL; Antibacterial Activity (MIC's) [3]: 0.2 µg/mL; Antibacterial Activity (MIC's) ([5]; STR[…] PIU 2548): 3.1 µg/mL; Antibacterial Activity (MIC's) (M[…] ATCC 4698; M[…] ATCC 4698): 0.39 µg/mL; Antibacterial Activity (MIC's) (EN[…] ATCC 8043; EN[…] ATCC 8043): 0.1 µg/mL; Antibacterial Activity (MIC's) (STR[…] 508; STR[…] 508): 0.02 µg/mL; Antibacterial Activity (MIC's) (ESCHERICHIA COLI JUHL): 50 µg/mL; Antibacterial Activity (MIC's) (M[…] ATCC 9341; M[…] ATCC 9341): 0.02 µg/mL; Antibacterial Activity (MIC's) ([10]; MYC[…] ATCC 114): 1.56 µg/mL; Antibacterial Activity (MIC's) ([12]; STR[…] A-5169): 0.01 µg/mL
CC[C@H]1OC(=O)[C@H](C)C(=O)[C@H](C)[C@@H](O[C@@H]2O[C@H](C)C[C@H](N(C)C)[C@H]2O)[C@](C)(OC)C[C@@H](C)C2=Nc3cc(C)ccc3N3C(=O)O[C@@]1(C)[C@H]3[C@H]2C [Ex 4, Compound of Formula (I): R^1 is methoxy; R^2 is H, R^3 is absent, the double bond is present, A, B, and E are H, D is methyl, and Y and Z taken together with the atom to which they are attached form an oxo group] | > 100 | 0.2 | 0.01 | 0.78 | 0.2 | > 100 | – | – | 0.2 | 0.01 | 0.78 | > 100 | 0.1 | 0.78 | 0.1 | 100 | > 100 | 0.01 | > 100 | 0.78 | –
CC[C@H]1OC(=O)[C@H](C)C(=O)[C@H](C)[C@@H](O[C@@H]2O[C@H](C)C[C@H](N(C)C)[C@H]2O)[C@](C)(OC)C[C@@H](C)C2=Nc3cc(C#N)ccc3N3C(=O)O[C@@]1(C)[C@H]3[C@H]2C [Ex 6, Compound of Formula (I): R^1 is methoxy; R^2 is H, R^3 is absent, the double bond is present, A, B, and E are H, D is cyano and Y and Z taken together with the atom to which they are attached form an oxo group] | > 100 | 3.1 | 0.01 | 0.39 | 0.39 | > 100 | > 100 | 0.39 | 0.39 | 0.05 | 0.39 | > 100 | 0.05 | 0.39 | 0.39 | 0.1 | > 100 | 0.01 | > 100 | – | Antibacterial Activity (MIC's) [3, 15]: 0.2 µg/mL; Antibacterial Activity (MIC's) (EN[…] ATCC 8043; ENTEROCOCCUS FAECIUM ATCC 8043): 0.05 µg/mL
